Patent US10392389B2, “Heterocyclic compounds for the inhibition of PASK” (BioEnergenix, LLC, priority 2012, dated 2019)

Columns and labels:
[1] = target: T1, CK2a2 (NP_001887; human full-length protein, GST tagged) (Homo sapiens, UniProt P19784); test: Biochemical Assay for CK2 Activity; conditions: 33P-ATP radiochemical assay, CK2 sub [RRRDDDSDDD]
T1 construct: human full-length protein, GST tagged; GST; host or cells: insect cells
Protocol: Biochemical Assay for CK2 Activity
(§1) Purified CK2a2 (NP_001887; human full-length protein, GST tagged) from insect cells (final concentration 1.2 nM) is added to freshly prepared Base Reaction Buffer containing 20 mM Hepes (pH 7.5), 10 mM MgCl2, 1 mM EGTA, 0.02% Brij35, 0.02 mg/ml BSA, 0.1 mM Na3VO4, 2 mM DTT, 1% DMSO and CK2 sub [RRRDDDSDDD] (20 μM final). Test compounds in DMSO are then added and the mixture, followed by delivery of ^33P-ATP (specific activity 0.01 μCi/μl final) to initiate the reaction. The kinase reaction is incubated for 120 min at room temperature. The entire reaction mixture is washed through onto a P81 Phosphocellulose paper and washed three times for 10 minutes in 75 mM phosphoric acid and once in methanol prior to drying and scintillation counting.

[2] = target: T2, PIM1 (NP_002639; human full-length protein, 6×His tagged) (Homo sapiens, UniProt P11309); test: Biochemical Assay for PIM1 Activity; conditions: 33P-ATP radiochemical assay, S6K/Rsk2 peptide 2 substrate
T2 construct: human full-length protein, 6×His tagged; 6xHis; host or cells: insect cells
Protocol: Biochemical Assay for PIM1 Activity
as §1, with “PIM1 (NP_002639;” for “CK2a2 (NP_001887;”, “6×His” for “GST”, “1.0” for “1.2”, “substrate S6K/Rsk2 peptide 2 [KKRNRTLTK]” for “CK2 sub [RRRDDDSDDD]”, “10” for “0.01”

[3] = target: T3, PASK (UniProt #Q96RG2; human recombinant N-terminal GST tagged construct, residues 879-1323) (Homo sapiens, UniProt Q96RG2); test: PASK ATP Radiochemical Assay; format: biochemical; conditions: 33P-ATP, Myelin Basic Protein substrate, read-out: IC50 Kinase Domain
T3 construct: N-terminal GST tagged construct, residues 879-1323; GST (N); host or cells: insect cells
Protocol: Biochemical Assay for hPASK Activity
PASK ATP Radiochemical Assay
as §1, with “PASK (UniProt #Q96RG2;” for “CK2a2 (NP_001887;”, “recombinant N-terminal” for “full-length protein,”, “tagged construct, residues 879-1323)” for “tagged)”, “5” for “1.2”, “HEPES” for “Hepes”, “Myelin Basic Protein” for “CK2 sub [RRRDDDSDDD]”

[4] = target: T4, PASK (Invitrogen) (Homo sapiens, UniProt Q96RG2); test: PAS Kinase FRET Assay; format: biochemical; conditions: PAS kinase TR-FRET assay (665 nm/615 nm); read-out: IC50 Kinase Domain
T4 construct: IC50 Kinase Domain; purchased Invitrogen
Summary of the method: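 PASK phosphorylates a ULight-peptide with ATP in 50 mM HEPES, 10 mM MgCl2, 1 mM EGTA, 0.01% Tween-20, 2 mM DTT for 2 h at 25° C in the dark. Compounds are added as 4× serial dilutions (top 12×10^−5 M at 4×). After stopping, an Eu anti-phospho-substrate antibody is added for 1 h and TR-FRET is read at 665/615 nm.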

T3 sequence (Q96RG2 879-1323, stated change not applied): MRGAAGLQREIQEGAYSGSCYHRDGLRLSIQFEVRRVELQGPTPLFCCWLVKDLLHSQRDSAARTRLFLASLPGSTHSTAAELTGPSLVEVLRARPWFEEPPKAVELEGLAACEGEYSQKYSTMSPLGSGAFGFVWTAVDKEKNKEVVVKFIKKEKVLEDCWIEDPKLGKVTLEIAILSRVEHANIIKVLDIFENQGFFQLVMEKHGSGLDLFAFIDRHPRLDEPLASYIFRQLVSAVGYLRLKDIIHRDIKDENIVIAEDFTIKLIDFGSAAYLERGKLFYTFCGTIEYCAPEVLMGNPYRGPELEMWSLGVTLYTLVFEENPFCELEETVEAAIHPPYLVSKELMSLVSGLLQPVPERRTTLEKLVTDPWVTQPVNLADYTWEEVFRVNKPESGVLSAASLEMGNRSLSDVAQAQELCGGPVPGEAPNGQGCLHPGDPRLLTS
T2 sequence (P11309 whole entry): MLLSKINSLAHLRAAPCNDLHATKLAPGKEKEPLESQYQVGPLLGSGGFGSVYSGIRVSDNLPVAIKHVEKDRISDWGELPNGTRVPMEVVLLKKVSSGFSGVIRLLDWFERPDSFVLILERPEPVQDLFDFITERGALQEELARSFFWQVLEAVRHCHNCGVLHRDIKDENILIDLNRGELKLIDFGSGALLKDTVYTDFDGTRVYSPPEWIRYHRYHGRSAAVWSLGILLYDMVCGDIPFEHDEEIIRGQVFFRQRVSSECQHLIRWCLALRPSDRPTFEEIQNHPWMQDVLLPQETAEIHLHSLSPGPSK
T4 sequence (Q96RG2 999-1251 limits assumed): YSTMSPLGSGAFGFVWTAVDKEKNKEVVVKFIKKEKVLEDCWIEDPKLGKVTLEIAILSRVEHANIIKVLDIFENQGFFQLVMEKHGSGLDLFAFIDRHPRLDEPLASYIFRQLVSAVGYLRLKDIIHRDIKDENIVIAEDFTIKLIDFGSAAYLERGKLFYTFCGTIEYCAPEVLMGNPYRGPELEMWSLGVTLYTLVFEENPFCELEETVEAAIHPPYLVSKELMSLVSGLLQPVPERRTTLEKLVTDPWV
T1 sequence (P19784 whole entry): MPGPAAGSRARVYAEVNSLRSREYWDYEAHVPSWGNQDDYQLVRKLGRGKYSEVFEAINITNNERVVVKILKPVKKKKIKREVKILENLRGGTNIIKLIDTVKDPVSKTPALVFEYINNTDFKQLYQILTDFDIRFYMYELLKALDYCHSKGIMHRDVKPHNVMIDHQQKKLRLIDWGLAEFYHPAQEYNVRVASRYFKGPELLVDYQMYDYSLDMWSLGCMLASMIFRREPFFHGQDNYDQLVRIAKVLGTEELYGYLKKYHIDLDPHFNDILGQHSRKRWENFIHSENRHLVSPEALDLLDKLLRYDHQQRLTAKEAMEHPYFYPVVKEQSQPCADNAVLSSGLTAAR

| SMILES | IC50 [1] [µM] | IC50 [2] [µM] | IC50 [3] [µM] | IC50 [4] [µM] |
| --- | --- | --- | --- | --- |
| Cc1nn2c(=O)cc(-c3ccc4c(c3)OCO4)[nH]c2c1-c1ncco1 [Example 2, 5-(2H-1,3-benzodioxol-5-yl)-2-methyl-3-(1,3-oxazol-2-yl)-4H,7H-pyrazolo[1,5-a]pyrimidin-7-one] | ≤ 10 | ≤ 10 | ≤ 10 | ≤ 10 |
| CCn1nccc1-c1cnn2c(=O)cc(-c3ccc(Cl)c(OC)c3)[nH]c12 [Example 65, 5-(4-chloro-3-methoxyphenyl)-3-(1-ethyl-1H-pyrazol-5-yl)pyrazolo[1,5-a]pyrimidin-7(4H)-one] | ≤ 10 | ≤ 10 | ≤ 10 | ≤ 10 |
| Cn1ccc(-c2cnn3c(=O)cc(-c4ccc(Cl)c(OCC(F)(F)F)c4)[nH]c23)n1 [Example 96, 5-(4-chloro-3-(2,2,2-trifluoroethoxy)phenyl)-3-(1-methyl-1H-pyrazol-3-yl)pyrazolo[1,5-a]pyrimidin-7(4H)-one] | > 10 | ≤ 10 | ≤ 10 | ≤ 10 |
| Cc1csc(-c2cnn3c(=O)cc(-c4ccc(Cl)cc4)[nH]c23)n1 [Example 58, 5-(4-chlorophenyl)-3-(4-methylthiazol-2-yl)pyrazolo[1,5-a]pyrimidin-7(4H)-one] | ≤ 10 | ≤ 10 | ≤ 10 | ≤ 10 |
| COc1cc(-c2cc(=O)n3ncc(-c4cc(C)n[nH]4)c3[nH]2)ccc1Cl [Example 69, 5-(4-chloro-3-methoxyphenyl)-3-(3-methyl-1H-pyrazol-5-yl)pyrazolo[1,5-a]pyrimidin-7(4H)-one] | ≤ 10 | ≤ 10 | ≤ 10 | ≤ 10 |
| CCc1coc(-c2cnn3c(=O)cc(-c4ccc5c(c4)OCO5)[nH]c23)n1 [Example 16, 5-(2H-1,3-benzodioxol-5-yl)-3-(4-ethyl-1,3-oxazol-2-yl)-4H,7H-pyrazolo[1,5-a]pyrimidin-7-one] | ≤ 10 | ≤ 10 | ≤ 10 | ≤ 10 |
| Cc1coc(-c2cnn3c(=O)cc(-c4ccc5c(c4)OCO5)[nH]c23)n1 [Example 4, 5-(2H-1,3-benzodioxol-5-yl)-3-(4-methyl-1,3-oxazol-2-yl)-4H,7H-pyrazolo[1,5-a]pyrimidin-7-one] | ≤ 10 | ≤ 10 | ≤ 10 | ≤ 10 |
| CCn1ncc2cc(-c3cc(=O)n4ncc(-c5n[nH]cc5C)c4[nH]3)ccc21 [Example 84, 5-(1-ethyl-1H-indazol-5-yl)-3-(4-methyl-1H-pyrazol-3-yl)-4H,7H-pyrazolo[1,5-a]pyrimidin-7-one] | ≤ 10 | ≤ 10 | ≤ 10 | ≤ 10 |
| CCn1ncc2cc(-c3cc(=O)n4ncc(-c5cc(C)n[nH]5)c4[nH]3)ccc21 [Example 68, 5-(1-ethyl-1H-indazol-5-yl)-3-(3-methyl-1H-pyrazol-5-yl)pyrazolo[1,5-a]pyrimidin-7(4H)-one] | ≤ 10 | ≤ 10 | ≤ 10 | – |
| COc1cc(-c2cc(=O)n3ncc(-c4ncco4)c3[nH]2)ccc1Cl [Example 19, 5-(4-chloro-3-methoxyphenyl)-3-(1,3-oxazol-2-yl)-4H,7H-pyrazolo[1,5-a]pyrimidin-7-one] | ≤ 10 | ≤ 10 | ≤ 10 | ≤ 10 |
| COc1cc(-c2cc(=O)n3ncc(-c4ncc(C)s4)c3[nH]2)ccc1Cl [Example 56, 5-(4-chloro-3-methoxyphenyl)-3-(5-methylthiazol-2-yl)pyrazolo[1,5-a]pyrimidin-7(4H)-one] | ≤ 10 | ≤ 10 | ≤ 10 | ≤ 10 |
| CCn1nccc1-c1cnn2c(=O)cc(-c3ccc(Cl)cc3)[nH]c12 [Example 66, 5-(4-chlorophenyl)-3-(1-ethyl-1H-pyrazol-5-yl)pyrazolo[1,5-a]pyrimidin-7(4H)-one] | ≤ 10 | ≤ 10 | ≤ 10 | ≤ 10 |
| Cc1noc(-c2cnn3c(=O)cc(-c4ccc5c(cnn5C)c4)[nH]c23)n1 [Example 74, 3-(3-methyl-1,2,4-oxadiazol-5-yl)-5-(1-methyl-1H-indazol-5-yl)-4H,7H-pyrazolo[1,5-a]pyrimidin-7-one] | ≤ 10 | ≤ 10 | ≤ 10 | ≤ 10 |
| O=c1cc(-c2ccc(Cl)cc2)[nH]c2c(-c3nccs3)cnn12 [Example 57, 5-(4-chlorophenyl)-3-(thiazol-2-yl)pyrazolo[1,5-a]pyrimidin-7(4H)-one] | ≤ 10 | ≤ 10 | ≤ 10 | ≤ 10 |
| O=c1cc(-c2ccc(Cl)c(Cl)c2)[nH]c2c(-c3cc[nH]n3)cnn12 [Example 70, 5-(3,4-dichlorophenyl)-3-(1H-pyrazol-3-yl)pyrazolo[1,5-a]pyrimidin-7(4H)-one] | ≤ 10 | ≤ 10 | ≤ 10 | ≤ 10 |
| Cc1noc(-c2cnn3c(=O)cc(-c4ccc(Cl)c(Cl)c4)[nH]c23)n1 [Example 100, 5-(3,4-dichlorophenyl)-3-(3-methyl-1,2,4-oxadiazol-5-yl)-4H,7H-pyrazolo[1,5-a]pyrimidin-7-one] | ≤ 10 | ≤ 10 | ≤ 10 | ≤ 10 |
| CCn1nccc1-c1cnn2c(=O)cc(-c3ccc(Cl)c(Cl)c3)[nH]c12 [Example 95, 5-(3,4-dichlorophenyl)-3-(1-ethyl-1H-pyrazol-5-yl)pyrazolo[1,5-a]pyrimidin-7(4H)-one] | ≤ 10 | ≤ 10 | ≤ 10 | ≤ 10 |
| Cn1ncc2cc(-c3cc(=O)n4ncc(-c5cc[nH]n5)c4[nH]3)ccc21 [Example 71, 5-(1-methyl-1H-indazol-5-yl)-3-(1H-pyrazol-3-yl)-4H,7H-pyrazolo[1,5-a]pyrimidin-7-one] | ≤ 10 | ≤ 10 | ≤ 10 | ≤ 10 |
| CCn1ncc2cc(-c3cc(=O)n4ncc(-c5nc(C)co5)c4[nH]3)ccc21 [Example 13, 5-(1-Ethyl-1H-indazol-5-yl)-3-(4-methyl-1,3-oxazol-2-yl)-4H,7H-pyrazolo[1,5-a]pyrimidin-7-one] | ≤ 10 | ≤ 10 | ≤ 10 | ≤ 10 |
| CCn1ncc2cc(-c3cc(=O)n4ncc(-c5oncc5C)c4[nH]3)ccc21 [Example 87, 5-(1-ethyl-1H-indazol-5-yl)-3-(4-methyl-1,2-oxazol-5-yl)-4H,7H-pyrazolo[1,5-a]pyrimidin-7-one] | ≤ 10 | ≤ 10 | ≤ 10 | ≤ 10 |
| CCOc1cc(-c2cc(=O)n3ncc(-c4nc(C)co4)c3[nH]2)ccc1Cl [Example 21, 5-(4-chloro-3-ethoxyphenyl)-3-(4-methyl-1,3-oxazol-2-yl)-4H,7H-pyrazolo[1,5-a]pyrimidin-7-one] | > 10 | ≤ 10 | ≤ 10 | ≤ 10 |
| COc1cc(-c2cc(=O)n3ncc(-c4ccnn4C)c3[nH]2)ccc1F [Example 79, 5-(4-fluoro-3-methoxyphenyl)-3-(1-methyl-1H-pyrazol-5-yl)pyrazolo[1,5-a]pyrimidin-7(4H)-one] | ≤ 10 | ≤ 10 | ≤ 10 | ≤ 10 |
